# Data from ChEMBL document CHEMBL3727364, “Resorcinol n-aryl amide compounds, for use as pyruvate dehydrogenase kinase inhibitors” (2015).
# Biological target: [Pyruvate dehydrogenase (acetyl-transferring)] kinase isozyme 1, mitochondrial (Homo sapiens, UniProt Q15118)
# Test: Binding affinity to pyruvate dehydrogenase kinase 1 (unknown origin) incubated for 90 mins by VER-00160364 probe based fluorescence polarization assay
# Sequence of [Pyruvate dehydrogenase (acetyl-transferring)] kinase isozyme 1, mitochondrial (Q15118 whole entry): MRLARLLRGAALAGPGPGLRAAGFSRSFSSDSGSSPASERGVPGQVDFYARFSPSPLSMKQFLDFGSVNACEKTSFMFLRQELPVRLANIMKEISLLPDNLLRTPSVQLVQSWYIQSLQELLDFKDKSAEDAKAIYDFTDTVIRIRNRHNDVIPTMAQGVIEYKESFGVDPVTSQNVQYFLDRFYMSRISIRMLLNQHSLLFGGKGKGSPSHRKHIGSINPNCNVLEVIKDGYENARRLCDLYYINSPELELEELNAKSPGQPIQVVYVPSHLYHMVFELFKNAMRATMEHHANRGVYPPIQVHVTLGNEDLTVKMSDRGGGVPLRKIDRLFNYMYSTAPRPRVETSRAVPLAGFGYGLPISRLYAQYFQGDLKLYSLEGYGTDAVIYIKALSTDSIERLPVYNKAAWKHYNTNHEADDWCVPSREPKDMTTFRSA
row,SMILES,IC50 [nM]
1,O=C(c1ccc(O)cc1O)N(Cc1ccsc1)c1ccc(-c2ncnc3ccc(Cl)cc23)cc1,1000
2,N#Cc1cncnc1-c1ccc(N(Cc2ccccc2)C(=O)c2ccc(O)cc2O)cc1,1000
3,COc1cc(-c2ccc(N(Cc3ccsc3)C(=O)c3ccc(O)cc3O)cc2)cnc1OC,10000
4,CN(C)C(=O)c1ccc(N(Cc2c[nH]cn2)C(=O)c2cc(Cl)c(O)cc2O)cc1,1000
5,CN(C)C(=O)c1ccc(N(Cc2ccn(C)n2)C(=O)c2cc(Cl)c(O)cc2O)cc1,10000
6,O=C(Cc1ccccc1)Nc1ccc(N(Cc2ccccc2)C(=O)c2ccc(O)cc2O)cc1,1000
7,O=C(O)c1nc(-c2ccc(N(Cc3ccccc3)C(=O)c3ccc(O)cc3O)cc2)c2ccccc2n1,1000
8,Cc1nccnc1-c1ccc(N(Cc2ccccc2)C(=O)c2ccc(O)cc2O)cc1F,1000
9,CN(C)C(=O)c1ccc(N(Cc2nc3ccccc3[nH]2)C(=O)c2cc(Cl)c(O)cc2O)cc1,1000
10,O=C(c1ccc(O)cc1O)N(Cc1ccsc1)c1ccc(-c2ccnc3ccccc23)cc1,1000
11,Cc1c(Cl)nc(Cl)nc1-c1ccc(N(Cc2ccccc2)C(=O)c2ccc(O)cc2O)cc1,1000
12,Cc1nc(N(C)C)nc(-c2ccc(N(Cc3cccnc3)C(=O)c3ccc(O)cc3O)cc2)c1C,1000
13,CNC(=O)c1ccc(N(Cc2cccnc2)C(=O)c2ccc(O)cc2O)cc1,1000
14,O=C(c1ccc(O)cc1O)N(Cc1cccnc1)c1ccc(-c2nc3cc(Cl)ccc3o2)cc1,1000
15,CN(Cc1ccc2ccccc2c1)C(=O)c1ccc(N(Cc2ccccc2)C(=O)c2ccc(O)cc2O)cc1,10000
16,O=C(c1ccc(O)cc1O)N(Cc1cccnc1)c1ccc(-c2ccc(-n3ccnc3)nn2)cc1,1000
17,O=C(c1ccc(O)cc1O)N(Cc1ccccc1)c1ccc(-c2nncc3ccccc23)cc1,1000
18,O=C(c1ccc(O)cc1O)N(Cc1cccnc1)c1ccc(-c2nc(-c3ccsc3)nc3ccccc23)cc1,1000
19,Cc1nccnc1-c1ccc(N(Cc2ccccc2)C(=O)c2ccc(O)cc2O)cc1,1000
20,O=C(Nc1ccc(N(Cc2ccccc2)C(=O)c2ccc(O)cc2O)cc1)c1cc2ccccc2[nH]1,10000
21,CCOC(=O)c1nc(C)nc(-c2ccc(N(Cc3ccccc3)C(=O)c3ccc(O)cc3O)cc2)c1C,10000
22,O=C(c1ccc(O)cc1O)N(Cc1ccsc1)c1ccc(-c2nc(Cl)nc3[nH]ccc23)cc1,1000
23,Cc1nc(-c2ccc(N(Cc3ccccc3)C(=O)c3ccc(O)cc3O)cc2)c2ccccc2n1,1000

row,SMILES,IC50 [nM]
1,Cc1nc(C)c(-c2ccc(N(Cc3cccnc3)C(=O)c3ccc(O)cc3O)cc2)s1,1000
2,CN(C)C(=O)c1ccc(N(CC2CCNCC2)C(=O)c2cc(Cl)c(O)cc2O)cc1,100
3,O=C(Nc1ccc(N(Cc2ccccc2)C(=O)c2ccc(O)cc2O)cc1)NC1CCCC1,10000
4,C[C@H](c1ccccc1)N(C(=O)c1cc(Cl)c(O)cc1O)c1ccc(C(=O)N(C)C)cc1,1000
5,CN(Cc1ccnc2ccccc12)C(=O)c1ccc(N(Cc2ccsc2)C(=O)c2ccc(O)cc2O)cc1,100
6,O=C(c1ccc(O)cc1O)N(Cc1ccccc1)c1ccc(-c2ncnc3cccc(F)c23)cc1,1000
7,CN(Cc1cccc2ncccc12)C(=O)c1ccc(N(Cc2ccsc2)C(=O)c2ccc(O)cc2O)cc1,100
8,CN(Cc1ccc2ccccc2n1)C(=O)c1ccc(N(Cc2ccccc2)C(=O)c2ccc(O)cc2O)cc1,100
9,O=C(c1ccc(O)cc1O)N(Cc1ccccc1)c1ccc(-c2nc3ccccc3cc2CO)cc1,10000
10,COc1cnc(Cl)nc1-c1ccc(N(Cc2ccccc2)C(=O)c2ccc(O)cc2O)cc1C,1000
11,N#Cc1cccc(-c2ccc(N(Cc3cccnc3)C(=O)c3ccc(O)cc3O)cc2)c1,1000
12,Cc1ncc(C)c(-c2ccc(N(Cc3ccccc3)C(=O)c3ccc(O)cc3O)cc2)n1,100
13,O=C(c1ccc(O)cc1O)N(Cc1ccccc1)c1ccc(-c2ccc(N3CCCC3)nn2)cc1,1000
14,O=C(c1ccc(N(Cc2ccccc2)C(=O)c2ccc(O)cc2O)cc1)N1CCC(O)CC1,100
15,O=C(c1ccc(O)cc1O)N(Cc1cccnc1)c1ccc(-c2nncc3ccccc23)cc1,100
16,CNc1nnc(-c2ccc(N(Cc3cccnc3)C(=O)c3ccc(O)cc3O)cc2)c2ccccc12,100
17,COc1cc(-c2ccc(N(Cc3cccnc3)C(=O)c3ccc(O)cc3O)cc2)ncn1,1000
18,Cc1cc2[nH]c(=O)[nH]c2cc1-c1ccc(N(Cc2ccccc2)C(=O)c2ccc(O)cc2O)cc1,10000
19,Cc1cc(S(=O)(=O)NCc2ccccc2)cnc1-c1ccc(N(Cc2ccsc2)C(=O)c2ccc(O)cc2O)cc1,100
20,Cc1cc2ccccc2nc1-c1ccc(N(Cc2ccc(CN3CCCC3)cc2)C(=O)c2ccc(O)cc2O)cc1,100
21,Cc1nccnc1-c1ccc(N(Cc2ccsc2)C(=O)c2ccc(O)cc2O)cc1,100
22,Cc1nc(N)ccc1-c1ccc(N(Cc2ccccc2)C(=O)c2ccc(O)cc2O)cc1,1000

# Continued by falling IC50, values first:
row,IC50 [nM],SMILES
1,100,CCOC(=O)c1nc(C)nc(-c2ccc(N(Cc3cccnc3)C(=O)c3ccc(O)cc3O)cc2)c1C
2,100,O=C(c1ccc(O)cc1O)N(Cc1ccccc1)c1ccc(-c2nc(-c3ccsc3)nc3ccccc23)cc1
3,100,Cc1cc(S(=O)(=O)N2CCOCC2)cnc1-c1ccc(N(Cc2ccccc2)C(=O)c2ccc(O)cc2O)cc1
4,100,CN(C)C(=O)c1ccc(N(Cc2cccc3c2cnn3C)C(=O)c2ccc(O)cc2O)cc1
5,100,CN(Cc1cccc2cccnc12)C(=O)c1ccc(N(Cc2ccsc2)C(=O)c2ccc(O)cc2O)cc1
6,100,Cc1cc(S(=O)(=O)N(C)CCO)cnc1-c1ccc(N(Cc2ccsc2)C(=O)c2ccc(O)cc2O)cc1
7,100,O=C(c1ccc(O)cc1O)N(Cc1cccnc1)c1ccc(-c2nc3ccccc3nc2C(F)(F)F)cc1
8,100,CN(C)C(=O)c1ccc(N(Cc2ccccn2)C(=O)c2cc(Cl)c(O)cc2O)cc1
9,100,Cc1cnc(N(C)C)nc1-c1ccc(N(Cc2ccccc2)C(=O)c2ccc(O)cc2O)cc1
10,100,Cc1cncnc1-c1ccc(N(Cc2cccnc2)C(=O)c2ccc(O)cc2O)cc1
11,100,CN(C)C(=O)c1ccc(N(Cc2cccc(O)c2)C(=O)c2cc(Cl)c(O)cc2O)cc1
12,100,Cc1cc(S(=O)(=O)NCCN(C)C)cnc1-c1ccc(N(Cc2cccnc2)C(=O)c2ccc(O)cc2O)cc1
13,100,Cc1cc(S(=O)(=O)NCCN(C)C)cnc1-c1ccc(N(Cc2ccccc2)C(=O)c2ccc(O)cc2O)cc1
14,100,Cc1nc(-c2ccc(N(Cc3ccccc3)C(=O)c3ccc(O)cc3O)cc2C)c2ccccc2n1
15,100,O=C(c1ccc(O)cc1O)N(Cc1cccnc1)c1ccc(-c2nc(C(F)(F)F)nc3ccccc23)cc1
16,100,COc1ccc(CN(C)C(=O)c2ccc(N(Cc3ccsc3)C(=O)c3cc(Cl)c(O)cc3O)cc2)cc1
17,100,Cc1cnc(Cl)nc1-c1ccc(N(Cc2ccccc2)C(=O)c2ccc(O)cc2O)cc1F
18,100,CCNCc1ccc(CN(C(=O)c2ccc(O)cc2O)c2ccc(-c3nc4ccccc4cc3C)cc2)cc1
19,100,N#Cc1cc(Cl)nc(-c2ccc(N(Cc3cccnc3)C(=O)c3ccc(O)cc3O)cc2)c1
20,100,O=C(c1ccc(O)cc1O)N(Cc1ccsc1)c1ccc(-c2nc(C(F)(F)F)nc3ccccc23)cc1
21,100,COc1cnc(Cl)nc1-c1ccc(N(Cc2ccccc2)C(=O)c2ccc(O)cc2O)cc1
22,100,Nc1ccc(-c2ccc(N(Cc3ccccc3)C(=O)c3ccc(O)cc3O)cc2)nn1
23,100,Cc1cc2ccc(F)cc2nc1-c1ccc(N(Cc2ccccc2)C(=O)c2ccc(O)cc2O)cc1F

row,IC50 [nM],SMILES
1,100,CN(C)C(=O)c1ccc(N(Cc2ccc(F)cc2)C(=O)c2cc(Cl)c(O)cc2O)cc1
2,100,CCc1nccnc1-c1ccc(N(Cc2cccnc2)C(=O)c2ccc(O)cc2O)cc1
3,100,CN(Cc1ccnc2ccccc12)C(=O)c1ccc(N(Cc2ccccc2)C(=O)c2ccc(O)cc2O)cc1
4,100,CN(C)C(=O)c1ccc(N(CC2CCCC2)C(=O)c2cc(Cl)c(O)cc2O)cc1
5,10,Cc1cc(S(=O)(=O)NCc2ccncc2)cnc1-c1ccc(N(Cc2cccnc2)C(=O)c2ccc(O)cc2O)cc1
6,10,O=C(c1ccc(O)cc1O)N(Cc1cccnc1)c1ccc(-c2ncnc3cccc(F)c23)cc1
7,10,CCc1cnc(C)nc1-c1ccc(N(Cc2cccnc2)C(=O)c2ccc(O)cc2O)cc1
8,10,CC(=O)N1CCN(S(=O)(=O)c2cnc(-c3ccc(N(Cc4ccccc4)C(=O)c4ccc(O)cc4O)cc3)c(C)c2)CC1
9,10,Cc1cc(S(=O)(=O)NCc2ccccn2)cnc1-c1ccc(N(Cc2cccnc2)C(=O)c2ccc(O)cc2O)cc1
10,10,Cc1cnc(Cl)nc1-c1ccc(N(Cc2ccccc2)C(=O)c2ccc(O)cc2O)cc1
11,10,Cc1cc(S(=O)(=O)N2CCOCC2)cnc1-c1ccc(N(Cc2cccnc2)C(=O)c2ccc(O)cc2O)cc1
12,10,Cc1cccnc1-c1ccc(N(Cc2cccnc2)C(=O)c2cc(Cl)c(O)cc2O)cc1
13,10,O=C(c1ccc(O)cc1O)N(Cc1ccccc1)c1ccc(-c2ccccc2Cl)cc1
14,10,Cc1cc(S(=O)(=O)NCCN(C)C)cnc1-c1ccc(N(Cc2ccsc2)C(=O)c2ccc(O)cc2O)cc1
15,10,Cc1cc(S(=O)(=O)N2CCN(C)CC2)cnc1-c1ccc(N(Cc2ccccc2)C(=O)c2ccc(O)cc2O)cc1
16,10,Cc1cc(S(=O)(=O)NCc2ccccn2)cnc1-c1ccc(N(Cc2ccccc2)C(=O)c2ccc(O)cc2O)cc1
17,10,COc1ccc(CN(C)C(=O)c2ccc(N(Cc3ccsc3)C(=O)c3cc(C)c(O)cc3O)cc2)cc1
18,10,CC(=O)N1CCN(S(=O)(=O)c2cnc(-c3ccc(N(Cc4cccnc4)C(=O)c4ccc(O)cc4O)cc3)c(C)c2)CC1
19,10,Cc1c(Cl)nc(Cl)nc1-c1ccc(N(Cc2cccnc2)C(=O)c2ccc(O)cc2O)cc1
20,10,Cc1noc(-c2ccccc2CN(C(=O)c2ccc(O)cc2O)c2ccc(-c3nc4ccccc4cc3C)cc2)n1
21,10,Cc1cc2ccccc2nc1-c1ccc(N(Cc2cccc(F)c2)C(=O)c2ccc(O)cc2O)cc1
22,10,COc1ccc(CN(C)C(=O)c2ccc(N(Cc3cccnc3)C(=O)c3ccc(O)cc3O)cc2)cc1
